# In patent publication US20170014375A1, “PHARMACEUTICAL COMPOSITION COMPRISING EFFECTIVE DOSE OF POMIFERIN FOR TREATING CANCERS” (Macau University of Science and Technology, priority 2015, published 2017):
# pIC50: −log10 of the molar value.
# Experiments:
# Ca2+ ATPase (SERCA1A) = biological target: T1, Ca2+ ATPase (SERCA1A) (Oryctolagus cuniculus, UniProt P04191); experiment: Measurement of SERCA activity (enzyme-coupled ATPase assay); type: biochemical; conditions: rabbit skeletal muscle SR membranes; FIG. 5B
# T1 construct: (SERCA1A) is prepared from female rabbit hind leg muscle; from tissue; host or cells: female rabbit hind leg (skeletal) muscle, sarcoplasmic reticulum membranes
# T1 sequence (P04191 1-994 isoform P04191-2): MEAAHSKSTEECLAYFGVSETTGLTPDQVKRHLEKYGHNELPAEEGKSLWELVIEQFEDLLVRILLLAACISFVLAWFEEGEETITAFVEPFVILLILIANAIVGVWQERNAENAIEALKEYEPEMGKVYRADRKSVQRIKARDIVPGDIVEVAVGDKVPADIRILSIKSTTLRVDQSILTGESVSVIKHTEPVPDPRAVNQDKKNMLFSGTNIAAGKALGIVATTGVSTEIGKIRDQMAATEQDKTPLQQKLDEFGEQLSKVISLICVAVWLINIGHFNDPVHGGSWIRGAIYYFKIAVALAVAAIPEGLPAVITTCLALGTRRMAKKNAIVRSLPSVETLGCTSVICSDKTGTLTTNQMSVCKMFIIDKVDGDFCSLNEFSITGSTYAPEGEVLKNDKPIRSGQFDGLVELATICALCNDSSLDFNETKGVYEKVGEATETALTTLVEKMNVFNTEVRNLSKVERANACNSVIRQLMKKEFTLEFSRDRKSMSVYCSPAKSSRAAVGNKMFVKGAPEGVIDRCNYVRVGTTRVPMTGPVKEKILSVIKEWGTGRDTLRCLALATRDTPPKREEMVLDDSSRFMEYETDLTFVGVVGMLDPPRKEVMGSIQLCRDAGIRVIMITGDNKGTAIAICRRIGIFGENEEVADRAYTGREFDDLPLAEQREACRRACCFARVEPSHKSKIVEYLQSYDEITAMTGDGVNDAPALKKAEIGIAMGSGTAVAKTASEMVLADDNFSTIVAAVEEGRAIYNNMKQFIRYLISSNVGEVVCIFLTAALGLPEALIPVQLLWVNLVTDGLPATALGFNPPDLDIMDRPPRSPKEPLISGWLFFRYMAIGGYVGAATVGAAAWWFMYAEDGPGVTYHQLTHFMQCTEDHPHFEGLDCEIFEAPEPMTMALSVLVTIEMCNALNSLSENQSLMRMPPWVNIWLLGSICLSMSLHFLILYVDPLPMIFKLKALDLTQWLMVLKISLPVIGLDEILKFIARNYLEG
# Experimental: Purified Ca^2+ ATPase (SERCA1A) is prepared from female rabbit hind leg muscle^27. ATPase activity is determined using the enzyme-coupled method utilizing pyruvate kinase and lactate dehydrogenase as previously described in Michelangeli et al. (1990). All SERCA inhibition data are fitted to the allosteric dose versus effect equation using Fig P (Biosoft):
# Activity=minimum activity+(maximum activity−minimum activity)/(1+([I]/IC50)P).
# HeLa cancer cells = experiment: Western blot of autophagic marker LC3-II conversion; type: cell-based, human; conditions: 0-15 μM, FIG. 1A
# Experimental: After pomiferin treatments in the presence or absence of lysosomal inhibitor 50 nM of Bafilomycin A1 or autophagy inhibitor 5 mM 3-MA, HeLa cancer cells are harvested and lysed in RIPA buffer (Cell Signaling Technologies Inc., Beverly, Mass.). The cell lysates are then resolved by SDS-PAGE. After electrophoresis, the proteins from SDS-PAGE are transferred to nitrocellulose membrane which is then blocked with 5% non-fat dried milk for 60 minutes. The membrane is then incubated with LC3 primary antibodies (1:1000) in TBST overnight at 4° C. After that, the membrane is further incubated with HRP-conjugated secondary antibodies for 60 minutes. Finally, protein bands are visualized by using the ECL Western Blotting Detection Reagents (Invitrogen, Paisley, Scotland, UK).
# [1] = tested on: Hep3B (human liver cancer) cells; experiment: MTT cytotoxicity assay, Hep3B; type: cell-based; conditions: 72 h, Hep 3B (Liver), 3 days, read-out: Means of IC50
# Experimental: (§1) Pomiferin is dissolved in DMSO at a final concentration of 100 mmol/L and stored at −20° C. Cytotoxicity is assessed using the 3-(4,5-dimethylthiazol-2-yl)-2,5-diphenyltetrazolium bromide assay. 4000-8000 HeLa (human cervical cancer), MCF-7 (human breast cancer), HepG2 and Hep3B (human liver cancer), H1299 and A549 (human lung cancer), LNCap (human prostate cancer) and LLC-1 (mouse Lewis lung carcinoma) cells are seeded on 96-well plates per well. After overnight pre-incubation, the cells are exposed to different concentrations of pomiferin ([…]) for 3 days. Subsequently, 10 μL of MTT reagents is added to each well and incubated at 37° C. for 4 hours followed by the addition of 100 μL solubilization buffer (10% SDS in 0.01 mol/L HCl) and overnight incubation. Absorbance at 585 nm is determined from each well the next day. The percentage of cell viability is calculated using the following formula: Cell viability (%)=Cells number treated/Cells number DMSO control×100. Data are obtained from three independent experiments.
# [2] = tested on: LNCap (human prostate cancer) cells; experiment: MTT cytotoxicity assay, LNCap; type: cell-based; conditions: 72 h, 3 days, read-out: Means of IC50
# Experimental: as §1
# [3] = tested on: caspase WT, 3KO, 7KO, 3/7 DKO, 8KO, Bax-Bak WT and Bax-Bak DKO MEFs; experiment: Endogenous autophagic LC3 puncta in apoptosis-resistant MEFs; type: cell-based, mouse; conditions: wild-type and apoptosis-resistant MEFs; FIG. 7
# Experimental: Endogenous LC3 puncta formation is quantified as previously described^2. In brief, caspase wild-type (caspase WT), caspase-3 deficient (caspase 3KO), caspase-7 deficient (caspase 7KO), caspase-3/-7 deficient (caspase 3/7 DKO), caspase-8 deficient (caspase 8KO), Bax-Bak wild-type (Bak-Bak WT) and Bax-Bak double knock out (Bak-Bak DKO) MEFs are grown on coverslips in a 6-well plate are treated with […] of pomiferin. Both wild-type and deficient MEFs are then fixed in 4% paraformaldehyde for 20 minutes at room temperature and then rinsed with PBS. After washing with PBS, the cells are then incubated with anti-LC3 (1:200) in TBST (100 mM Tris HCl, pH 7.5, 150 mM NaCl, 0.05% Tween 20 and 5% BSA) overnight at 4. After washing with PBS, the cells are incubated with anti-mouse secondary antibody (TRITC) 1:200 in TBST containing 5% BSA at 37 for 1 hrs in the dark. The coverslips are then mounted with FluorSave™ mounting media (Calbiochem, San Diego, Calif., USA) for fluorescence imaging and localization of LC3 autophagosomes are captured under the API Delta Vision Live-cell Imaging System (Applied Precision Inc., GE Healthcare Company, Washington, USA).
# [4] = tested on: Atg7 wild-type (Atg7+/+) mouse embryonic fibroblasts; experiment: Annexin V/PI flow cytometry cell death, Atg7+/+ MEFs; type: cell-based; conditions: 2 μM, 24 h, FIG. 6B
# Experimental: Cell viability is measured using an annexin V staining kit (BD Biosciences, San Jose, Calif., USA). Briefly, Atg7 wild-type (Atg7+/+ or Atg7-wt) and Atg7 deficient (Atg7−/− or Atg7-ko) mouse embryonic fibroblasts (MEFs) are treated with the 2 μM pomiferin for 24 h. Cells are then harvested and analysed by multiparametric flow cytometry using FITC-Annexin V and Propidium iodide staining (BD Biosciences, San Jose, Calif., USA) according to the manufacturer's instructions. Flow cytometry is then carried out using a FACSCalibur flow cytometer (BD Biosciences, San Jose, Calif., USA). Data acquisition and analysis is performed with CellQuest (BD Biosciences, San Jose, Calif., USA). Data are obtained from three independent experiments.
# [5] = tested on: caspase-8 deficient (caspase 8KO) mouse embryonic fibroblasts; experiment: MTT cytotoxicity assay, caspase 8KO MEFs; type: cell-based; conditions: Fibroblast, 72 h, 3 days, read-out: Means of IC50
# Experimental: The test compound of pomiferin is dissolved in DMSO at a final concentration of 100 mmol/L and stored at −20° C. Cytotoxicity is assessed using the 3-(4,5-dimethylthiazol-2-yl)-2,5-diphenyltetrazolium bromide assay as previously described^29. 2500 of caspase wild-type (caspase WT), caspase-3 deficient (caspase 3KO), caspase-7 deficient (caspase 7KO), caspase-3/-7 deficient (caspase 3/7 DKO), caspase-8 deficient (caspase 8KO), Bax-Bak wild-type (Bak-Bak WT) and Bax-Bak double knock out (Bak-Bak DKO) mouse embryonic fibroblasts (MEFs) are seeded on 96-well plates per well. After overnight pre-incubation, the cells are exposed to different concentrations of pomiferin (namely 100, 50, 25, 12.5, 6.25, 3.125, 1.5625, 0.78, 0.39, 0.195, 0.079, 0.039 μmol/L) for 3 days. Subsequently, 10 μL of MTT reagents is added to each well and incubated at 37° C. for 4 hours, followed by the addition of 100 μL solubilization buffer (10% SDS in 0.01 mol/L HCl) and overnight incubation. Absorbance at 585 nm is determined from each well on the following day. The percentage of cell viability is calculated using the following formula: Cell viability (%)=Cells numbertreated/Cells numberDMSO control×100. Data is obtained from three independent experiments.
smiles,measurement,setting,value
CC(C)=CCc1c2c(c3occ(-c4ccc(O)c(O)c4)c(=O)c3c1O)C=CC(C)(C)O2 [pomiferin],SERCA1A pump inhibition,Ca2+ ATPase (SERCA1A),inhibited by pomiferin in a dose-dependent manner
same,autophagic marker LC3-II conversion,HeLa cancer cells,induced
same,pIC50,[1],4.79
same,pIC50,[2],4.79
same,autophagy induction (endogenous LC3 puncta),[3],able to induce autophagy in all these wild-type and apoptosis-resistant cells
same,cell death (in words),[4],markedly induce cell death
same,pIC50,[5],5.30
